Assay results reported in patent US4666934A, “Prostaglandin analogs” (The Upjohn Company, priority 1985, dated 1987).
Values after ≈ are worked out from the molar mass of the structure shown. Structures can show the parent of a compound that is named as a salt. One block for each molecule: values may come before it.

Legend:
Assay type in all cases: physicochemical
[1] = Characterizability (passes profile; moisture content after air equilibration); conditions: for Characterizability (passes profile): Table I
Water solubility = conditions: for Water solubility: in words
[2] = Trichlorotrifluoroethane solubility
Procedure: The solubility of the compounds in trichlorotrifluoroethane, a high molecular weight fluorochlorinated alkane liquid propellant, was determined as follows. Suspensions of each compound were prepared at concentrations of ~1 mg/ml in trichlorotrifluoroethane in 30 ml glass vials sealed using polytetrafluoroethylene lined caps. These vials were wrapped with aluminum foil and shaken at ~25° C. After 26 days shaking the samples were filtered. Three successive 5 ml fractions were collected from the filter and analyzed to test for adsorption. (No adsorption was observed.)
The 5 ml samples were transferred to 5 ml volumetric flasks and solvent was evaporated under nitrogen. The residue was redissolved in 1 ml methanol and diluted to 5 ml with 30% CH3 CN. Samples were assayed by high pressure liquid chromatography.

Solid-state stability = conditions: for Solid state stability (degradation): 2 months at 33° C., 87600 min; for Solid-state stability (visual observation): 75% R.H., 30°, same = as at day 0
Procedure: (§1) The solid-state stability studies were performed as follows. Approximately 10-15 mg of the free acid or a salt was placed in either clear glass vials or amber vials wrapped in aluminum foil and stored under various conditions as listed below:
(a) Refrigerated at about 4° C. (dark).
(b) High Intensity Light Box at about 33° C. and relative humidity <15%. (Light Box contained 6-15 watt fluorescent bulbs 41/2 inches above the powder surface.) Sample vials were placed on their sides with powder spread evenly on the vial wall.
(c) 30° C./75% relative humidity/dark-vials were capped loosely.
(§2) At various times, 1-1.5 mg samples were dissolved in methanol, diluted to a prescribed volume with water, and analyzed by high pressure liquid chromatography versus reference standard of the free acid stored at -20° C. Chromatographic conditions were similar to those described previously.

[3] = Stability suspended in trichlorotrifluoroethane; conditions: dark, 30°
Procedure: as §1
(d) Suspended in […] and shaken continuously for 26 days.
as §2

[4] = Specific gravity (volume displacement, pycnometer); conditions: 20° C., acetonitrile
Procedure: To obtain specific gravity data approximate densities were obtained using a volume displacement procedure. To a 5 ml weighed pycnometer was added 200-300 mg of salt and acetonitrile added to fill. The salt suspensions were sonicated to remove entrapped air and equilibrated to 20° C. in a water bath. The salt densities were estimated by standard methods of calculation.

- Characterizability (passes profile) [1]: Pass
- solubility (Water solubility; water, Table I, numeric): 1 µg/mL (≈ 2.35 µM)
- solubility at 624 h ([2]; trichlorotrifluoroethane, organic solvent or mixture, ~25° C., 26 days shaking): 0.38 µg/mL (≈ 0.893 µM)
- Solid state stability (degradation) (Solid-state stability): > 10%
- Solid-state stability (Solid-state stability; Dark, 33°, 0 days): 100% of Theory
- Solid-state stability (Solid-state stability; Dark, 33°, 19 days, 27360 min): 98% of Theory
- Solid-state stability (Solid-state stability; Dark, 33°, 189 days, 272160 min): 65% of Theory
- Solid-state stability (Solid-state stability; Dark, 33°, 289 days, 416160 min): 46% of Theory
- Solid-state stability (Solid-state stability; Dark, 33°, 405 days, 583200 min): 19% of Theory
- Solid-state stability (visual observation) (Solid-state stability; Dark, 19 days): same
- Solid-state stability (Solid-state stability; High intensity light, 33°, relative humidity <15%, 0 days): 100% of Theory
- Solid-state stability (Solid-state stability; High intensity light, 33°, relative humidity <15%, 19 days, 27360 min): 55% of Theory
- remaining at 960 h (Solid-state stability; solid state, Dark, 33°, 40 days): 94%
- remaining at 1584 h (Solid-state stability; solid state, Dark, 33°, 66 days): 89%
- Stability in trichlorotrifluoroethane suspension ([3]; 0 days): 100% of Theory
- remaining at 624 h ([3]; trichlorotrifluoroethane, 26 days, read-out: Stability in trichlorotrifluoroethane suspension): 94%
Structure (SMILES): CCCCC[C@H](O)/C=C/[C@@H]1c2cc(CCCCC(=O)O)n(-c3ccccc3)c2C[C@H]1O [Free Acid, 6,9-deepoxy-6,9-(phenylimino)-Δ6,8-prostaglandin I1, reference compound]

- Characterizability (passes profile) ([1]; potassium salt): Pass
- moisture content after air equilibration ([1]; potassium salt): .42 % H2O
- Water solubility (Water solubility; listed as potassium salt, potassium salt): high water solubility
- Water solubility (Water solubility; potassium salt): Soluble
- Trichlorotrifluoroethane solubility ([2]; ~25° C., 26 days shaking, potassium salt, 37440 min): 0.43 µg/mL
- Solid state stability (degradation) (Solid-state stability; potassium salt): < 2%
- Solid-state stability (Solid-state stability; Dark, 4°, 0 days, potassium salt): 100% of Theory
- Solid-state stability (Solid-state stability; Dark, 33°, 0 days, potassium salt): 100% of Theory
- Solid-state stability (Solid-state stability; Dark, 33°, 19 days, potassium salt, 27360 min): 100% of Theory
- Solid-state stability (Solid-state stability; Dark, 33°, 40 days, potassium salt, 57600 min): 100% of Theory
- Solid-state stability (Solid-state stability; Dark, 33°, 66 days, potassium salt, 95040 min): 100% of Theory
- Solid-state stability (Solid-state stability; Dark, 33°, 289 days, potassium salt, 416160 min): 96% of Theory
- Solid-state stability (Solid-state stability; Dark, 33°, 405 days, potassium salt, 583200 min): 96% of Theory
- Solid-state stability (visual observation) (Solid-state stability; Dark, 19 days, potassium salt): glass
- Solid-state stability (Solid-state stability; High intensity light, 33°, relative humidity <15%, 0 days, potassium salt): 100% of Theory
- Solid-state stability (Solid-state stability; High intensity light, 33°, relative humidity <15%, 19 days, potassium salt, 27360 min): 48% of Theory
- Rank order of stability (Solid-state stability; protected from light, 33°): potassium salt>free acid>sodium salt
- remaining at 1584 h (Solid-state stability; solid state, Dark, 4°, 66 days): 102%
- remaining at 4536 h (Solid-state stability; solid state, Dark, 4°, 189 days): 101%
- remaining at 2400 h (Solid-state stability; solid state, Dark, 33°, 100 days): 97%
- remaining at 5184 h (Solid-state stability; solid state, Dark, 33°, 216 days): 98%
- Specific gravity ([4]; potassium salt): 1.20
- Stability in trichlorotrifluoroethane suspension ([3]; 26 days, potassium salt, 37440 min): 100% of Theory
Structure (SMILES): CCCCC[C@H](O)/C=C/[C@@H]1c2cc(CCCCC(=O)O)n(-c3ccccc3)c2C[C@H]1O [Potassium Salt, 6,9-Deepoxy-6,9-(phenylimino)-Δ6,8-prostaglandin I1, potassium salt]
- Solubility in fluorinated and fluorochlorinated liquified propellants ([2]; as compared to the free acid, in words): low solubility in fluorinated and fluorochlorinated liquified propellants
- Solid-state stability (Solid-state stability; in words, over the free acid or the sodium salt): improved solid-state stability over the free acid or the sodium salt

- moisture content after air equilibration ([1]; sodium salt): .82 % H2O
- Water solubility (Water solubility; sodium salt): Soluble
- Solid state stability (degradation) (Solid-state stability; sodium salt): > 50%
- Solid-state stability (Solid-state stability; Dark, 4°, 0 days, sodium salt): 101% of Theory
- Solid-state stability (Solid-state stability; Dark, 33°, 0 days, sodium salt): 101% of Theory
- Solid-state stability (Solid-state stability; Dark, 33°, 19 days, sodium salt, 27360 min): 61% of Theory
- Solid-state stability (visual observation) (Solid-state stability; Dark, 19 days, sodium salt): same
- Solid-state stability (Solid-state stability; High intensity light, 33°, relative humidity <15%, 0 days, sodium salt): 101% of Theory
- Solid-state stability (Solid-state stability; High intensity light, 33°, relative humidity <15%, 19 days, sodium salt, 27360 min): 3% of Theory
- remaining at 456 h (Solid-state stability; solid state, Dark, 4°, 19 days): 87%
- remaining at 1104 h (Solid-state stability; solid state, Dark, 4°, 46 days): 77%
- Specific gravity ([4]; sodium salt): 1.18
Structure (SMILES): CCCCC[C@H](O)/C=C/[C@@H]1c2cc(CCCCC(=O)O)n(-c3ccccc3)c2C[C@H]1O [Sodium Salt, 6,9-Deepoxy-6,9-(phenylimino)-Δ6,8-prostaglandin I1, sodium salt]
- Characterizability (passes profile) ([1]; sodium salt): Initial analysis acceptable but later assays (HPLC) unacceptable
